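Growth conditions: 96-well plates. Treatment: test compound, 48 hours, 5 concentrations. Analysis: linear interpolation between bracketing concentrations; unreached endpoints set to highest concentration. At the GI50, growth is halved.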 Active and inactive are the calls of the source. Cut-off read from the data, not from the text of the source: active = GI50 up to about 1.1 µM and inactive = higher. Where a SMILES comes first, the peptide text is derived from it. [ ]: non-standard residue; d: D form. The star is where a group is joined. Iva = CC[C](C)(N)C(=O)O; Boc = CC(C)(C)OC(=O)*; X54 = C1CCC(=NO*)C1
Tests used:
Test in all cases: growth of human tumour cells (NCI), 48 h
MOLT-4 = tested on: MOLT-4
SNB-78 = tested on: SNB-78
DLD-1 = tested on: DLD-1
U-251 = tested on: U-251
CCRF-CEM = tested on: CCRF-CEM
SF-295 = tested on: SF-295
NCI-H226 = tested on: NCI-H226
KM-20L2 = tested on: KM-20L2
DMS-273 = tested on: DMS-273
HT-29 = tested on: HT-29
OVCAR-4 = tested on: OVCAR-4
M19-MEL = tested on: M19-MEL
SN12C = tested on: SN12C
DMS-114 = tested on: DMS-114
LXFL 529 = tested on: LXFL 529
BT-549 = tested on: BT-549
MDA-MB-231 = tested on: MDA-MB-231
Hs-578T = tested on: Hs-578T
MDA-N = tested on: MDA-N
MDA-MB-435 = tested on: MDA-MB-435

Measured: GI50

CC(C(=O)O)c1cnn(-c2ccccc2)c1-n1cccc1 (stereo not given)
inactive: MOLT-4 > 100 µM | SNB-78 > 100 µM | DLD-1 > 100 µM | U-251 > 100 µM | CCRF-CEM > 100 µM | SF-295 > 100 µM | NCI-H226 > 100 µM | KM-20L2 > 100 µM | DMS-273 > 100 µM | HT-29 > 100 µM | OVCAR-4 > 100 µM | M19-MEL > 100 µM | SN12C > 100 µM

CCOC(=O)C1=C(C)N(C2OC(COC(C)=O)C(OC(C)=O)C(OC(C)=O)C2OC(C)=O)C(=O)NC1c1ccccc1 (stereo not given)
inactive: MOLT-4 99.1 µM | SNB-78 > 100 µM | DLD-1 > 100 µM | U-251 > 100 µM | CCRF-CEM 44.9 µM | DMS-114 > 100 µM | SF-295 > 100 µM | NCI-H226 > 100 µM | KM-20L2 > 100 µM | LXFL 529 > 100 µM | HT-29 > 100 µM | OVCAR-4 > 100 µM | M19-MEL > 100 µM | SN12C > 100 µM

CC(Oc1ccc(Oc2cnc3ccc(Cl)cc3n2)cc1)C(=O)O (stereo not given)
inactive: MOLT-4 15.1 µM | U-251 > 94.6 µM | CCRF-CEM > 74.1 µM | SF-295 98.9 µM | BT-549 > 80.2 µM | MDA-MB-231 > 100 µM | Hs-578T > 88.1 µM | OVCAR-4 > 100 µM

COc1ccc(-c2c3c(nc4nc(SCC(=O)c5ccc(Br)cc5)nc(N)c24)CCCC3)cc1OC
inactive: MOLT-4 > 10 µM | U-251 > 100 µM | CCRF-CEM > 100 µM | SF-295 > 100 µM | BT-549 80 µM | MDA-MB-231 26.9 µM | MDA-N > 100 µM | Hs-578T 15.3 µM | HT-29 41.4 µM | MDA-MB-435 > 100 µM | OVCAR-4 33.7 µM | SN12C > 100 µM

CC(=O)c1ccc(Oc2ccc(/C(C)=N\N=C(N)N)cc2)cc1
inactive: MOLT-4 2.25 µM | SNB-78 2.8 µM | DLD-1 3.56 µM | U-251 2.77 µM | CCRF-CEM 1.91 µM | DMS-114 1.43 µM | SF-295 2.38 µM | KM-20L2 1.71 µM | LXFL 529 4.18 µM | HT-29 1.67 µM | OVCAR-4 10.6 µM | SN12C 3.17 µM

COc1cc2cc[n+]3c(C)c4cc(OC)c(OC)cc4c([O-])c3c2cc1OC
inactive: MOLT-4 48.8 µM | SNB-78 > 100 µM | DLD-1 > 100 µM | U-251 47.1 µM | CCRF-CEM 27 µM | DMS-114 30.3 µM | SF-295 > 100 µM | NCI-H226 33.1 µM | KM-20L2 53.2 µM | DMS-273 53.6 µM | LXFL 529 40.1 µM | HT-29 41.2 µM | OVCAR-4 85.7 µM | M19-MEL 46.6 µM | SN12C 32.7 µM

C/C(=N/NC(=O)c1ccncc1)C(F)(F)F
inactive: MOLT-4 > 100 µM | U-251 > 100 µM | SF-295 > 100 µM | NCI-H226 > 100 µM | BT-549 > 100 µM | Hs-578T > 100 µM | HT-29 > 100 µM | MDA-MB-435 > 100 µM | SN12C > 100 µM

CCCCCCCCCCCCCCCc1ccc(OCC(O)CO)cc1 (stereo not given)
inactive: MOLT-4 > 100 µM | SNB-78 29.7 µM | DLD-1 44.2 µM | U-251 23.7 µM | CCRF-CEM > 100 µM | DMS-114 29.7 µM | SF-295 50.1 µM | NCI-H226 25.7 µM | KM-20L2 31.6 µM | DMS-273 17.7 µM | LXFL 529 26.7 µM | HT-29 21.7 µM | OVCAR-4 16.3 µM | M19-MEL 18 µM | SN12C 18 µM

NC(Cc1ccccc1CP(=O)(O)O)C(=O)O (stereo not given)
inactive: MOLT-4 > 100 µM | U-251 > 100 µM | CCRF-CEM > 100 µM | SF-295 > 100 µM | BT-549 > 100 µM | MDA-MB-231 > 100 µM | MDA-N > 100 µM | Hs-578T > 100 µM | HT-29 > 100 µM | MDA-MB-435 > 100 µM | OVCAR-4 > 100 µM | SN12C > 100 µM

C[C@@H]1C[C@]2(C[C@@H](C)[C@H]3C(C[C@@]4(C)CCC[C@@H]5C6=C[C@H](CCC34C)OC6=CC(=O)OC5(C)C)O2)OC1=O (stereo not given in full)
inactive: MOLT-4 > 51.5 µM | SNB-78 > 51.5 µM | DLD-1 > 51.5 µM | U-251 > 51.5 µM | CCRF-CEM > 51.5 µM | DMS-114 > 51.5 µM | SF-295 > 51.5 µM | KM-20L2 > 51.5 µM | DMS-273 > 51.5 µM | HT-29 > 51.5 µM | OVCAR-4 > 51.5 µM | M19-MEL > 51.5 µM | SN12C > 51.5 µM

CC1=NN(C(=O)c2ccc(C)cc2)C(=O)C1/N=N/c1ccccc1C(=O)O (stereo not given)
inactive: MOLT-4 > 73.8 µM | SNB-78 > 94 µM | DLD-1 > 100 µM | U-251 85.7 µM | CCRF-CEM 53.7 µM | DMS-114 > 100 µM | SF-295 > 92.3 µM | NCI-H226 > 100 µM | KM-20L2 > 100 µM | DMS-273 > 100 µM | HT-29 > 32.1 µM | OVCAR-4 > 100 µM | M19-MEL > 100 µM | SN12C > 100 µM

COC(=O)/C=C\Sc1ccn(/C=C\C(=O)OC)c(=S)n1
inactive: U-251 19.9 µM | CCRF-CEM > 100 µM | BT-549 22.9 µM | MDA-MB-231 26.1 µM | MDA-N 27.3 µM | Hs-578T 25.5 µM | HT-29 22.2 µM | MDA-MB-435 23.1 µM | OVCAR-4 16.9 µM | SN12C 23.6 µM

COc1cc(C(O)(CC#N)c2cc3c(cc2Br)OCO3)cc(OC)c1OC (stereo not given)
inactive: MOLT-4 56 µM | U-251 28.6 µM | CCRF-CEM 43.2 µM | SF-295 16.3 µM | NCI-H226 30.8 µM | BT-549 > 100 µM | MDA-MB-231 21.4 µM | MDA-N 5.07 µM | HT-29 25.4 µM | MDA-MB-435 3 µM | OVCAR-4 > 100 µM | SN12C > 100 µM

CCC(C)(NC(=O)C(C)NC(=O)OC(C)(C)C)C(=O)NC(C)C(=O)NC(C)(CC)C(=O)ON=C1CCCC1 (stereo not given) (Boc-A[Iva]A[Iva]-X54; configuration not given here)
inactive: MOLT-4 29.9 µM | U-251 > 100 µM | CCRF-CEM > 100 µM | SF-295 > 100 µM | NCI-H226 > 100 µM | BT-549 > 100 µM | MDA-MB-231 > 100 µM | MDA-N > 100 µM | Hs-578T > 100 µM | MDA-MB-435 > 100 µM | SN12C > 100 µM

COc1ccc(/C=N/n2cnc3c(c2=O)SC(=C(C#N)C#N)N3c2ccccc2)cc1
inactive: MOLT-4 > 100 µM | DLD-1 > 100 µM | U-251 > 100 µM | CCRF-CEM > 100 µM | SF-295 74.5 µM | NCI-H226 > 100 µM | LXFL 529 > 100 µM | HT-29 > 100 µM | M19-MEL > 100 µM

COc1ncnc2c(Cl)c(C(O)c3ccccc3)c(Cl)cc12 (stereo not given)
inactive: MOLT-4 24 µM | U-251 27.3 µM | SF-295 24.4 µM | BT-549 20.6 µM | MDA-MB-231 18.6 µM | MDA-N 5.16 µM | Hs-578T 19.6 µM | HT-29 30.1 µM | MDA-MB-435 5.57 µM | OVCAR-4 29.1 µM | SN12C 28.1 µM

O=C1C(CO)=C[C@H](O)[C@H]2O[C@@H]12
inactive: MOLT-4 133 µM | SNB-78 186 µM | DLD-1 113 µM | U-251 171 µM | CCRF-CEM 74.8 µM | DMS-114 137 µM | SF-295 84.9 µM | NCI-H226 194 µM | KM-20L2 337 µM | DMS-273 185 µM | HT-29 260 µM | OVCAR-4 130 µM | M19-MEL 120 µM | SN12C 128 µM

O=C1C(Cl)N(c2ccc(Cl)cc2)C1c1c[nH]c2ccccc12 (stereo not given)
inactive: MOLT-4 14.7 µM | U-251 13 µM | CCRF-CEM 13 µM | DMS-114 14.2 µM | SF-295 16.4 µM | KM-20L2 13.2 µM | LXFL 529 14.1 µM | HT-29 17.1 µM | OVCAR-4 39.7 µM | M19-MEL 24.3 µM | SN12C 17.7 µM

Reference: ChEMBL document CHEMBL1201862, “PubChem BioAssay data set” (2004)
